Results: patent US20170334891A1, “ENHANCER OF ZESTE HOMOLOG 2 INHIBITORS” (GLAXOSMITHKLINE INTELLECTUAL PROPERTY (NO.2) LIMITED, priority 2014, published 2017)

The compounds below were run against T1, EZH2 within the PRC2 complex (Homo sapiens, UniProt Q15910) (assay: EZH2 methyltransferase scintillation proximity assay (SPA)). Details: Human PRC2 5 member complex (FLAG-EZH2, EED, SUZ12, RbAp48, AEBP2), 1 nM enzyme, biotinylated histone H3K27 peptide, 3H-SAM, 60 min at room temperature.
T1 construct: FLAG; made in house; host or cells: Sf9 cells
Assay type: biochemical
Protocol: Compounds contained herein were evaluated for their ability to inhibit the methyltransferase activity of EZH2 within the PRC2 complex. Human PRC2 complex was prepared by co-expressing each of the 5 member proteins (FLAG-EZH2, EED, SUZ12, RbAp48, AEBP2) in Sf9 cells followed by co-purification. Enzyme activity was measured in a scintillation proximity assay (SPA) where a tritiated methyl group is transferred from 3H-SAM to a lysine residue on a biotinylated, unmethylated peptide substrate derived from histone H3. The peptides were captured on streptavidin-coated SPA beads and the resulting signal was read on a ViewLux plate reader.
• 1. Prepare 10 mM stock of compounds from solid in 100% DMSO. • 2. Set up an 11-point serial dilution (1:4 dilution, top concentration 10 mM) in 100% DMSO for each test compound in a 384 well plate leaving columns 6 and 18 for DMSO controls. • 3. Dispense 10 nL of compound from the dilution plate into reaction plates (Corning, 384-well polystyrene NBS, Cat#3673).
Prepare the following solutions: • 1. 1× Base Buffer, 50 mM Tris-HCl, pH 8, 2 mM MgCl2: Per 1 L of base buffer, combine 1 M Tris-HCl, pH 8 (50 mL), 1 M MgCl2 (2 mL), and distilled water (948 mL). • 2. 1× Assay Buffer: Per 10 mL of 1× Assay Buffer, combine 1× Base Buffer (9.96 mL), 1 M DTT (40 uL), and 10% Tween-20 (1 uL) to provide a final concentration of 50 mM Tris-HCl, pH 8, 2 mM MgCl2, 4 mM DTT, 0.001% Tween-20. • 3. 2× Enzyme Solution: Per 10 mL of 2× Enzyme Solution, combine 1× Assay Buffer (9.99 mL) and 3.24 uM EZH2 5 member complex (6.17 uL) to provide a final enzyme concentration of 1 nM. • 4. SPA Bead Solution: Per 1 mL of SPA Bead Solution, combine Streptavidin coated SPA beads (PerkinElmer, Cat# RPNQ0261, 40 mg) and 1× Assay Buffer (1 mL) to provide a working concentration of 40 mg/mL. • 5. 2× Substrate Solution: Per 10 mL of 2× Substrate Solution, combine 40 mg/mL SPA Bead Solution (375 uL), 1 mM biotinylated histone H3K27 peptide (200 uL), 12.5 uM 3H-SAM (240 uL; 1 mCi/mL), 1 mM cold SAM (57 uL), and 1× Assay Buffer (9.13 mL) to provide a final concentration of 0.75 mg/mL SPA Bead Solution, 10 uM biotinylated histone H3K27 peptide, 0.15 uM 3H-SAM (˜12 uCi/mL 3H-SAM), and 2.85 uM cold SAM. • 6. 2.67× Quench Solution: Per 10 mL of 2.67× Quench Solution, combine 1× Assay Buffer (9.73 mL) and 10 mM cold SAM (267 uL) to provide a final concentration of 100 uM cold SAM.
• 1. Stamp 10 nL/well of 1000× Compound to test wells (as noted above). • 2. Stamp 10 nL/well of 100% DMSO to columns 6 & 18 (high and low controls, respectively).
• 1. Dispense 5 uL/well of 1× Assay Buffer to column 18 (low control reactions). • 2. Dispense 5 uL/well of 2× Substrate Solution to columns 1-24 (note: substrate solution should be mixed to ensure homogeneous bead suspension before dispensing into matrix reservoir). • 3. Dispense 5 uL/well of 2× Enzyme Solution to columns 1-17, 19-24. • 4. Incubate the reaction for 60 min at room temperature.
• 1. Dispense 6 uL/well of the 2.67× Quench Solution to columns 1-24. • 2. Seal assay plates and spin for ˜1 min at 500 rpm. • 3. Dark adapt plates in the ViewLux instrument for 15-60 min.
• 1. Read the assay plates on the Viewlux Plate Reader utilizing the 613 nm emission filter or clear filter (300 s exposure). Reagent addition can be done manually or with automated liquid handler.
Percent inhibition was calculated relative to the DMSO control for each compound concentration and the resulting values were fit using standard IC50 fitting parameters within the ABASE data fitting software package.
The IC50 values of <10 nM indicate that the activity of compound was approaching the limit of detection in the assay. Repeating the assay run(s) may result in somewhat different IC50 values.

T1 sequence (Q15910 whole entry): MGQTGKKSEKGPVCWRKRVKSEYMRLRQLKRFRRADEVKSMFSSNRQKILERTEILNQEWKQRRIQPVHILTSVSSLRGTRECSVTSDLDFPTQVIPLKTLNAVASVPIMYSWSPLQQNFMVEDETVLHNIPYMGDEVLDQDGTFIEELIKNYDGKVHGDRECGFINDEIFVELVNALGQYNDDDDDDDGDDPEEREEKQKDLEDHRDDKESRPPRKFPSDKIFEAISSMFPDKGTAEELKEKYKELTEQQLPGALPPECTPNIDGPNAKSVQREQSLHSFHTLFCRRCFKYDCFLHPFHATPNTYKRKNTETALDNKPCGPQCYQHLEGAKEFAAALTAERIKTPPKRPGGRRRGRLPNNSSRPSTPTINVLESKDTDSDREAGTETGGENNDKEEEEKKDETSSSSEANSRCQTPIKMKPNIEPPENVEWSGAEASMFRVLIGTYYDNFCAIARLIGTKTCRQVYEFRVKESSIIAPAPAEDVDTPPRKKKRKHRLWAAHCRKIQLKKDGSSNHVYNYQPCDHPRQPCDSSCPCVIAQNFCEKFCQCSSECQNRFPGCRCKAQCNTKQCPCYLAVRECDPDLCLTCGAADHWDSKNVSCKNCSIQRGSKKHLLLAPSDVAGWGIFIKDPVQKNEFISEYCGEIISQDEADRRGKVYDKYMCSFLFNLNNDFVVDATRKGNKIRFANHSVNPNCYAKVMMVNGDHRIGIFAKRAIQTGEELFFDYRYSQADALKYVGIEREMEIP
T1 sequence (O75530 whole entry partner): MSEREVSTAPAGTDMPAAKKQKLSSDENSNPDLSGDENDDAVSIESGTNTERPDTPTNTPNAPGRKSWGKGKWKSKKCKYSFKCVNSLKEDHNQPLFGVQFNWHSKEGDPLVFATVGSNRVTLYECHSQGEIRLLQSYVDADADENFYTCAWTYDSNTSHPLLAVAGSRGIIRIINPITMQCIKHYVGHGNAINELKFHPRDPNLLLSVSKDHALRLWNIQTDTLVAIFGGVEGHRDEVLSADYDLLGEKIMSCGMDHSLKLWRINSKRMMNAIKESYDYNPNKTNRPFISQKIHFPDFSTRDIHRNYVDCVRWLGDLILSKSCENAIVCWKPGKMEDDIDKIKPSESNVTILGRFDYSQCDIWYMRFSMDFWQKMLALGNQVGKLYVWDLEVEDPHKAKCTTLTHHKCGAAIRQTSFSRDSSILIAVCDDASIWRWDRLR
T1 sequence (Q15022 whole entry partner): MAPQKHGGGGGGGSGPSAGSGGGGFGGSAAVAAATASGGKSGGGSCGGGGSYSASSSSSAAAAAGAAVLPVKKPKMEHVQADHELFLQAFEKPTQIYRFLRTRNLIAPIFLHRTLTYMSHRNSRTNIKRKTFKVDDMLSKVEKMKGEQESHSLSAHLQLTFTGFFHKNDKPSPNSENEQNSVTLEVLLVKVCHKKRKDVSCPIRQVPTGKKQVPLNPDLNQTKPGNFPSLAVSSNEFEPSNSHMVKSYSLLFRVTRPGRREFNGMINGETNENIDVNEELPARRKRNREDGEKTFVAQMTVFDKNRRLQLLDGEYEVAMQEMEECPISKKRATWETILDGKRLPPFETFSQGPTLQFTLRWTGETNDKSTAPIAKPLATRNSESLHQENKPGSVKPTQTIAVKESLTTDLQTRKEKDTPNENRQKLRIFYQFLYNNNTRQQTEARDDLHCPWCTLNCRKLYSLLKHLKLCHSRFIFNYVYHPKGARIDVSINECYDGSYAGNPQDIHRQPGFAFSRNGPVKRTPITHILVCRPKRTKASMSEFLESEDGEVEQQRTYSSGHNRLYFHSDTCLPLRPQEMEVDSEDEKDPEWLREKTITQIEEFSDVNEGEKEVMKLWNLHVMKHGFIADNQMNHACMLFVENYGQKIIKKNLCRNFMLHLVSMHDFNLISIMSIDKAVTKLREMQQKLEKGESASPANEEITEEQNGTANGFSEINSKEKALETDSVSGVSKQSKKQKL
T1 sequence (Q09028 whole entry partner): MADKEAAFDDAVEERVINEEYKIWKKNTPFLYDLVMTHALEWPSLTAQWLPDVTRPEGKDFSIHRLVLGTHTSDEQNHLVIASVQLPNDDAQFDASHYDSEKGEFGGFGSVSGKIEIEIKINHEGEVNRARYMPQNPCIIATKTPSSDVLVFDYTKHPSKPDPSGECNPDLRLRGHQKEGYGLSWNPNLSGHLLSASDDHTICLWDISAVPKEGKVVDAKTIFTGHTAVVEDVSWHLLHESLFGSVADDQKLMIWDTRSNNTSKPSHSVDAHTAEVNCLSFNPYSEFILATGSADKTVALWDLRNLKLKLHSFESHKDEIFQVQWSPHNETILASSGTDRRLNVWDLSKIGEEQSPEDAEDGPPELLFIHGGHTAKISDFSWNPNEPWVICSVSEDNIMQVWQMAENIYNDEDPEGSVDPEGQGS
T1 sequence (Q6ZN18 whole entry partner): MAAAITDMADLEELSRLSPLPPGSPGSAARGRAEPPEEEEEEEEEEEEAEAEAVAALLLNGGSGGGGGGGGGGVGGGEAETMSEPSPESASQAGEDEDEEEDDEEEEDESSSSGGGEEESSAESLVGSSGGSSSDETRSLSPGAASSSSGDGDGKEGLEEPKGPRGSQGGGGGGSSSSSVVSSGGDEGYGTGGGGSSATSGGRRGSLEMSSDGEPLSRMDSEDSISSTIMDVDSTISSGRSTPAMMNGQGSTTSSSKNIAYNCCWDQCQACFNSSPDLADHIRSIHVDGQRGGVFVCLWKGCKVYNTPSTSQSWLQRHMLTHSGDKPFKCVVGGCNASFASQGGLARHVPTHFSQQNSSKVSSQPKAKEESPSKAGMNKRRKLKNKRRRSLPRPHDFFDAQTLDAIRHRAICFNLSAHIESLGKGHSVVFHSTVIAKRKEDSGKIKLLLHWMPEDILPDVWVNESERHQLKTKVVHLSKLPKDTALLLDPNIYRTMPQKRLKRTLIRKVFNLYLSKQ

IC50	Compound
≤ 0.01 µM	CC[C@@H](c1scc(C(=O)NCc2c(C)cc(C)[nH]c2=O)c1C)C1CCN(CC(F)F)CC1 [Example 21, (R)-5-(1-(1-(2,2-Difluoroethyl)piperidin-4-yl)propyl)-N-((4,6-dimethyl-2-oxo-1,2-dihydropyridin-3-yl)methyl)-4-methylthiophene-3-carboxamide]
≤ 0.01 µM	Cc1cc(C)c(CNC(=O)c2csc([C@H](C)C3CCN(CC(F)F)CC3)c2C)c(=O)[nH]1 [Example 22, (R)-5-(1-(1-(2,2-Difluoroethyl)piperidin-4-yl)ethyl)-N-((4,6-dimethyl-2-oxo-1,2-dihydropyridin-3-yl)methyl)-4-methylthiophene-3-carboxamide]
≤ 0.01 µM	Cc1cc(C)c(CNC(=O)c2csc([C@H](C)C3CCN(CC(C)(F)F)CC3)c2C)c(=O)[nH]1 [Example 23, (R)-5-(1-(1-(2,2-Difluoropropyl)piperidin-4-yl)ethyl)-N-((4,6-dimethyl-2-oxo-1,2-dihydropyridin-3-yl)methyl)-4-methylthiophene-3-carboxamide]
